Here are results for two compounds from PubChem BioAssay AID1745844 (Carcinogenic Potency Database (CPDB), 2022).

Active and inactive are the calls of the source. The rule behind the calls is not given here.

For the data set, the system named is rodent lifetime carcinogenesis bioassay, tumor incidence TD50. Description: carcinogenic potency in animals, long-term in vivo studies, CPDB compilation (AID 1745844).

Usually TD50 stands for the 50% point of the dose-response relation for the toxic effect studied. With `ClC1=C(Cl)[C@]2(Cl)[C@H]3[C@H]([C@@H]4C=C[C@H]3C4)[C@@]1(Cl)C2(Cl)Cl`, the carcinogen call (mouse, strain B6C3F1, females, in feed, site: any site (literature study), lesion: several types, types named in the paper, dosed 80 weeks, study length 90 weeks) is “negative (inactive)”; the carcinogen call (rat, strain Not specified, females, in feed, site: any site (literature study), lesion: one or several types, types not named, dosed 104 weeks, study length 104 weeks) was “negative (inactive)”; the carcinogen call (rat, strain Not specified, males, in feed, site: any site (literature study), lesion: one or several types, types not named, dosed 104 weeks, study length 104 weeks) is “negative (inactive)”; the carcinogen call (rat, strain Osborne-Mendel, both sexes, in feed, site: any site (literature study), lesion: several types, types named in the paper, dosed 104 weeks, study length 104 weeks) was “positive”; the carcinogen call (rat, strain Osborne-Mendel, females, in feed, site: any site (literature study), lesion: several types, types named in the paper, dosed 80 weeks, study length 111 weeks) is “negative (inactive)”; the carcinogen call (rat, strain Osborne-Mendel, females, in feed, site: any site (literature study), lesion: several types, types named in the paper, dosed 108 weeks, study length 108 weeks) is “negative (inactive)”. Also, the carcinogen call is “negative (inactive)” (rat, strain Osborne-Mendel, females, in feed, site: any site (literature study), lesion: several types, types named in the paper, dosed 111 weeks, study length 117 weeks); “negative (inactive)” (rat, strain Osborne-Mendel, females, in feed, site: liver, lesion: one or several types, types not named, dosed 104 weeks, study length 104 weeks); “negative (inactive)” (rat, strain Osborne-Mendel, females, in feed, site: liver, lesion: one or several types, types not named, dosed 108 weeks, study length 108 weeks); “negative (inactive)” (rat, strain Osborne-Mendel, females, in feed, site: liver, lesion: one or several types, types not named, dosed 111 weeks, study length 117 weeks); “negative (inactive)” (rat, strain Osborne-Mendel, males, in feed, site: any site (literature study), lesion: several types, types named in the paper, dosed 124 weeks, study length 134 weeks); “negative (inactive)” (rat, strain Osborne-Mendel, males, in feed, site: liver, lesion: hemangioma, dosed 124 weeks, study length 134 weeks). Besides, the carcinogen call is “negative (inactive)” (rat, strain Osborne-Mendel, males, in feed, site: liver, lesion: one or several types, types not named, dosed 108 weeks, study length 108 weeks) and “negative (inactive)” (rat, strain Sprague-Dawley, females, in feed, site: liver, lesion: one or several types, types not named, dosed 104 weeks, study length 104 weeks). Besides, the TD50 was 9.02 mg/kg/day (mouse, strain B6C3F1, females, in feed, site: lung, lesion: alveolar/bronchiolar adenoma + alveolar/bronchiolar carcinoma, dosed 80 weeks, study length 90 weeks); 1.01 mg/kg/day (mouse, strain B6C3F1, males, in feed, site: any site (literature study), lesion: several types, types named in the paper, dosed 80 weeks, study length 90 weeks); 0.741 mg/kg/day (mouse, strain B6C3F1, males, in feed, site: liver, lesion: hepatocellular adenoma + hepatocellular carcinoma + neoplastic nodule, dosed 80 weeks, study length 90 weeks); 0.861 mg/kg/day (mouse, strain B6C3F1, males, in feed, site: liver, lesion: hepatocellular carcinoma, dosed 80 weeks, study length 89 weeks); 0.741 mg/kg/day (mouse, strain B6C3F1, males, in feed, site: liver, lesion: hepatocellular carcinoma, dosed 80 weeks, study length 90 weeks); 3.2 mg/kg/day (mouse, strain B6C3F1, males, in feed, site: lung, lesion: alveolar/bronchiolar adenoma + alveolar/bronchiolar carcinoma, dosed 80 weeks, study length 90 weeks). Besides, the TD50 is 4.25 mg/kg/day (mouse, strain C3HeB/Fe, both sexes, in feed, site: any site (literature study), lesion: benign tumor, dosed 104 weeks, study length 104 weeks); 4.41 mg/kg/day (mouse, strain C3HeB/Fe, both sexes, in feed, site: liver, lesion: hepatocellular adenoma, dosed 104 weeks, study length 104 weeks); 3.45 mg/kg/day (mouse, strain C3HeB/Fe, both sexes, in feed, site: liver, lesion: hepatoma, dosed 104 weeks, study length 104 weeks); 129 mg/kg/day (mouse, strain C3HeB/Fe, both sexes, in feed, site: lung, lesion: carcinoma, dosed 104 weeks, study length 104 weeks); 42.3 mg/kg/day (rat, strain Osborne-Mendel, both sexes, in feed, site: lung, lesion: lymphosarcoma, dosed 104 weeks, study length 104 weeks); 3.12 mg/kg/day (inactive) (rat, strain Osborne-Mendel, females, in feed, site: adrenal gland, lesion: cortical adenoma, dosed 80 weeks, study length 109 weeks). Also, the TD50 runs as follows: (rat, strain Osborne-Mendel, females, in feed, site: any site (literature study), lesion: one or several types, types not named, dosed 104 weeks, study length 104 weeks) 1.69 mg/kg/day; (rat, strain Osborne-Mendel, females, in feed, site: liver, lesion: hepatocellular adenoma + hepatocellular carcinoma + neoplastic nodule, dosed 80 weeks, study length 111 weeks) 466 mg/kg/day; (rat, strain Osborne-Mendel, females, in feed, site: lymphoreticular system, lesion: one or several types, types not named, dosed 104 weeks, study length 104 weeks) 4.35 mg/kg/day (inactive); (rat, strain Osborne-Mendel, males, in feed, site: any site (literature study), lesion: several types, types named in the paper, dosed 74 weeks, study length 111 weeks) 16.4 mg/kg/day (inactive); (rat, strain Osborne-Mendel, males, in feed, site: any site (literature study), lesion: several types, types named in the paper, dosed 108 weeks, study length 108 weeks) 4.21 mg/kg/day (inactive).
Regarding `CCCN(N=O)/C(N)=N/[N+](=O)[O-]`, the TD50 is 2.85 mg/kg/day (rat, strain Wistar, males, in drinking water, site: stomach, glandular, lesion: adenocarcinoma, dosed 52 weeks, study length 65 weeks); 2.27 mg/kg/day (rat, strain Wistar, males, in drinking water, site: stomach, glandular, lesion: adenocarcinoma, dosed 52 weeks, study length 78 weeks); 1.9 mg/kg/day (rat, strain Wistar, males, in drinking water, site: stomach, glandular, lesion: adenoma, dosed 34 weeks, study length 65 weeks); 0.919 mg/kg/day (rat, strain Wistar, males, in drinking water, site: stomach, glandular, lesion: adenoma, dosed 52 weeks, study length 65 weeks); 2.27 mg/kg/day (rat, strain Wistar, males, in drinking water, site: stomach, glandular, lesion: adenoma, dosed 52 weeks, study length 78 weeks).
